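Cultured in 96-well plates, cells were exposed to test compound for 48 hours across five concentrations. GI50 marks 50% less growth.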 The source made the active and inactive calls. No stated cut-off is given here; in the data, active = GI50 up to about 1.1 µM and inactive = higher. A value given as a limit tells only on which side of the number the result lay.

What all share (assay): NCI anticancer screen, dose series, 48 h
Assay [1] relates to A498.
Assay [2] deals with MCF7.
Assay [3] concerns EKVX.
Assay [4] concerns KM12.
The subject of assay [5] is NCI-H226.
The subject of assay [6] is RPMI-8226.
Assay [7] deals with UACC-62.
Assay [8] concerns OVCAR-3.
For assay [9], the system named is CCRF-CEM.
For assay [10], the system named is OVCAR-8.
Assay [11] deals with Hs-578T.
Assay [12] relates to SNB-75.
In assay [13] the test system is SNB-19.
Assay [14] concerns SK-MEL-5.
The subject of assay [15] is HL-60.
For assay [16], the system named is MDA-N.
The test system of assay [17] is CAKI-1.
Assay [18] relates to SW-620.
Assay [19] relates to NCI-H23.
For assay [20], the system named is HCT-116.

Take `Nc1nc(Cl)cc(NCC2(CO)CC(CCCc3ccccc3)C2)n1` (configuration not stated): the GI50 in [1] is > 63.1 µM (inactive); in [2] it was 0.0492 µM (active); in [3], > 25.3 µM (inactive); in assay [4] it was > 100 µM (inactive); in [5] it was > 100 µM (inactive); in [6], > 100 µM (inactive). The GI50 in assay [7] was > 100 µM (inactive); in [8], > 100 µM (inactive); in assay [9] it was > 73.1 µM (inactive); in [10], > 72.1 µM (inactive); in assay [11] it was > 64.4 µM (inactive); in [12], > 46 µM (inactive). The GI50 in assay [13] is > 71.1 µM (inactive); in [14], 0.31 µM (active); in assay [15] it was > 35.1 µM (inactive); in [16] it was > 100 µM (inactive); in assay [17] it was > 100 µM (inactive); in assay [18], > 100 µM (inactive).

Turning to `O=[N+]([O-])c1nccn1CCCNCCCn1ccnc1[N+](=O)[O-]`, the GI50 in assay [1], in [2], in [3], in assay [4], in assay [5] and in [6] was > 100 µM (inactive) throughout. The GI50 in [7], in assay [8], in assay [9], in [10], in assay [11] and in assay [12] was > 100 µM (inactive) in each case. The GI50 in assay [19], in [14], in [20], in [15], in [16] and in assay [17] was > 100 µM (inactive) each time. The GI50 in [18] is > 100 µM (inactive).

Take `CCN(CC)CCOc1ccccc1/C=C/c1noc2ccccc12`: the GI50 in assay [1] is 17.2 µM (inactive); in assay [2], 14.2 µM (inactive); in [3] it was 15.2 µM (inactive); in [4] it was 16.4 µM (inactive); in assay [5] it was 16.3 µM (inactive); in assay [7] it was 10.6 µM (inactive). Further, the GI50 in assay [8] was 14.7 µM (inactive); in [9], 15.2 µM (inactive); in [10] it was 12.2 µM (inactive); in assay [11] it was 15.7 µM (inactive); in [12], 10.4 µM (inactive); in [19], 13.9 µM (inactive). For the same compound, the GI50 in [13] was 13.6 µM (inactive); in [14] it was 3.79 µM (inactive); in [20], 6.22 µM (inactive); in assay [15] it was 7.76 µM (inactive); in assay [16], 11.8 µM (inactive); in [17], 12.8 µM (inactive). The GI50 in [18] was 10.2 µM (inactive).

Consider `CCN1CN(c2ccccc2)C2(CCN(CC3COc4ccccc4O3)CC2)C1=O` (configuration not stated), for which the GI50 in [1] was 22.6 µM (inactive); in assay [2], 26.1 µM (inactive); in [4] it was 17.5 µM (inactive); in assay [5] it was 24 µM (inactive); in assay [6] it was 17.4 µM (inactive); in assay [7], 23.3 µM (inactive). Also, the GI50 is 31.2 µM (inactive) in assay [8]; 18.4 µM (inactive) in [9]; 34.7 µM (inactive) in [10]; 20.7 µM (inactive) in [11]; 30.2 µM (inactive) in [12]; 40.6 µM (inactive) in assay [19]. Further, the GI50 in assay [13] is 36.2 µM (inactive); in assay [14], 18.2 µM (inactive); in [20], 17.6 µM (inactive); in [15] it was 16.1 µM (inactive); in assay [16], 2.28 µM (inactive); in assay [17], 43 µM (inactive). Moreover, the GI50 in [18] is 47.8 µM (inactive).

In the case of `C[N+](C)(C)c1ncnc2c1ncn2C1CCCO1` (configuration not stated), the GI50 in [1], in assay [2], in [3], in assay [4], in assay [5] and in assay [6] was > 100 µM (inactive) each time. Moreover, the GI50 is > 100 µM (inactive) in assay [7]; > 100 µM (inactive) in assay [8]; > 100 µM (inactive) in assay [9]; > 100 µM (inactive) in [10]; > 100 µM (inactive) in [11]; 84.9 µM (inactive) in [12]. For the same compound, the GI50 in assay [19] was > 100 µM (inactive); in assay [13], > 100 µM (inactive); in assay [14], > 100 µM (inactive); in [20], > 100 µM (inactive); in assay [15], 56.4 µM (inactive); in [16], > 100 µM (inactive). Also, the GI50 in assay [18] was > 100 µM (inactive).

`COc1cc(C2S/C(=C/c3ccccc3)C(=O)N2c2cccc(Cl)c2)cc(OC)c1OC` (configuration not stated): the GI50 was 69.7 µM (inactive) in [1]; 34 µM (inactive) in assay [2]; 37.2 µM (inactive) in assay [3]; 27.4 µM (inactive) in assay [4]; 93.5 µM (inactive) in assay [5]; 24.8 µM (inactive) in assay [6]. For the same compound, the GI50 in [7] was 9.4 µM (inactive); in [8], 30.1 µM (inactive); in assay [9], 25.6 µM (inactive); in assay [10], 57.8 µM (inactive); in assay [11], 86.7 µM (inactive); in assay [19] it was 94.4 µM (inactive). The GI50 in assay [13] is 42.9 µM (inactive); in assay [14], 35.7 µM (inactive); in assay [20] it was 36.3 µM (inactive); in [15], 30.9 µM (inactive); in assay [16], 30.2 µM (inactive); in [17] it was 30.8 µM (inactive). Further, the GI50 in [18] is 46 µM (inactive).

Regarding `Cc1ncc([N+](=O)[O-])n1CCNC(=O)Cn1c([N+](=O)[O-])cnc1C`, the GI50 in assay [1], in [2], in assay [4], in assay [5], in [7] and in assay [8] was > 100 µM (inactive) each time. The GI50 is > 100 µM (inactive) in assay [9]; > 100 µM (inactive) in assay [10]; > 100 µM (inactive) in [11]; 76.2 µM (inactive) in [12]; > 100 µM (inactive) in [19]; > 100 µM (inactive) in [13]. Besides, the GI50 in [14], in assay [20], in assay [15], in assay [16], in assay [17] and in assay [18] was > 100 µM (inactive) throughout.

On to `CC(=O)Oc1ccc2oc(=O)cc(C)c2c1`, for which the GI50 in assay [1], in assay [2], in [3], in assay [4], in [5] and in [6] was > 100 µM (inactive) in each case. Besides, the GI50 in assay [8], in assay [9], in assay [10], in assay [11], in assay [12] and in assay [19] was > 100 µM (inactive) each time. Besides, the GI50 in assay [13], in assay [14], in [20], in assay [15], in assay [16] and in [17] was > 100 µM (inactive) in each case. Further, the GI50 in assay [18] is > 100 µM (inactive).

For the compound `CCOC(=O)c1sc2[n+](c1C)C(=O)/C(=C/c1ccc([N+](=O)[O-])cc1)S2`, the GI50 in assay [1] was > 100 µM (inactive); in assay [2] it was 21.2 µM (inactive); in assay [4], 18.4 µM (inactive); in assay [5] it was 28.3 µM (inactive); in [6], 10.4 µM (inactive); in assay [7], 17.9 µM (inactive). The GI50 in assay [8] is 9.08 µM (inactive); in assay [9], > 100 µM (inactive); in assay [10] it was 19.5 µM (inactive); in [11] it was 23.2 µM (inactive); in [12], 20.5 µM (inactive); in [19], 16.1 µM (inactive). The GI50 in assay [13] was 45.2 µM (inactive); in [14] it was 38.8 µM (inactive); in assay [20], 20.8 µM (inactive); in assay [15], 75.7 µM (inactive); in [16] it was 27.7 µM (inactive); in assay [17], 15.1 µM (inactive). The GI50 in assay [18] is 28.5 µM (inactive).

Consider `COc1ccc2c(c1)Cc1cc(/N=[N+](\[O-])c3ccc4c(c3)Cc3cc(OC)ccc3-4)ccc1-2`, for which the GI50 in [1] is 35.6 µM (inactive); in assay [2], 19.7 µM (inactive); in assay [3], 11.3 µM (inactive); in assay [4], 29.4 µM (inactive); in assay [5], 70.3 µM (inactive); in assay [7], 24.5 µM (inactive). Moreover, the GI50 was 48.8 µM (inactive) in [8]; 12 µM (inactive) in assay [9]; 38.6 µM (inactive) in [10]; 54 µM (inactive) in [11]; 39.2 µM (inactive) in assay [12]; 65.6 µM (inactive) in assay [19]. For the same compound, the GI50 in assay [13] was 51.8 µM (inactive); in [14], 18.1 µM (inactive); in assay [20] it was 60.7 µM (inactive); in assay [15] it was 7.48 µM (inactive); in [16] it was 29.7 µM (inactive); in assay [17], 36.2 µM (inactive). Besides, in assay [18], the GI50 was > 100 µM (inactive).

As to `COc1cccc(/C=C/c2cnc3ccccc3n2)c1OC`, the GI50 in [1] was 40.4 µM (inactive); in [2], 25.9 µM (inactive); in [3] it was 33 µM (inactive); in assay [4], 30.8 µM (inactive); in assay [5], 37.2 µM (inactive); in [6], 41.8 µM (inactive). Further, the GI50 in assay [7] is 28.4 µM (inactive); in [8], 37.2 µM (inactive); in [9], 35.6 µM (inactive); in assay [10], 29.7 µM (inactive); in assay [11], 19.1 µM (inactive); in assay [12] it was 13.4 µM (inactive). The GI50 in assay [19] is 31.9 µM (inactive); in assay [14], 17.1 µM (inactive); in assay [20] it was 30.1 µM (inactive); in [15], 34.4 µM (inactive); in assay [16] it was 61.1 µM (inactive); in assay [17] it was 45.2 µM (inactive). Also, the GI50 in [18] was 52.1 µM (inactive).

The record behind these values is ChEMBL document CHEMBL1201862, “PubChem BioAssay data set” (2004).
